# Reference: patent publication US3985887A, “3-Substituted-4-hydroxyphenyl-2-piperidylcarbinols as β-adrenergic stimulants” (SmithKline Corporation, priority 1975, dated 1976)
# Where a name gives a salt, the structure may show the parent alone.
# Legend:
# [1] = system: spontaneously beating right atria of the guinea pig; experiment: effect on spontaneously beating right atria of the guinea pig (β-stimulant effect on cardiac muscle); type: cell-based; conditions: Cavia porcellus, in vitro, read-out: ED25, dose which produces 25% of the maximum possible increase in atrial contraction rate
# Description: (§1) The compounds of this invention are β-adrenergic stimulants which have direct bronchodilator activity with minimal cardiac stimulation. This selective β-stimulant activity is determined by two standard in vitro pharmacological test systems: (1) effect on spontaneous tone of guinea pig tracheal chain preparation as a measure of β-stimulant (direct relaxant) effect on airway smooth muscle, and (2) effect on spontaneously beating right atria of the guinea pig as a measure of β-stimulant effect on cardiac muscle. Compounds that show selective bronchodilating properties, as the compounds of this invention do, are active in test (1) at a dose lower than is required in test (2) thereby resulting in a positive separation ratio. Results of test (1) are reported as the dose which produces 50% of the maximum possible relaxation (ED50). Test (2) results are reported as the dose which produces 25% of the maximum possible increase in atrial contraction rate (ED25).
# [2] = system: guinea pig tracheal chain preparation; experiment: effect on spontaneous tone of guinea pig tracheal chain preparation (β-stimulant direct relaxant effect on airway smooth muscle); type: cell-based; conditions: Cavia porcellus, in vitro, read-out: ED50, dose which produces 50% of the maximum possible relaxation
# Description: as §1
Compound,EC25 [1],EC50 [2]
NC(=O)Nc1cc(C(O)C2CCCCN2)ccc1O (stereo not drawn) [α-(4-hydroxy-3-ureidophenyl)-2-piperidylcarbinol hydrochloride],9.4 µg/mL,0.83 µg/mL
CS(=O)(=O)Cc1cc(C(O)C2CCCCN2)ccc1O (stereo not drawn) [α-(4-hydroxy-3-methanesulfonylmethylphenyl)-2-piperidylcarbinol hydrobromide],1.1 µg/mL,0.14 µg/mL
Nc1cc(C(O)C2CCCCN2)ccc1O (stereo not drawn) [α-(3-amino-4-hydroxyphenyl)-2-piperidylcarbinol hydrobromide],4.4 µg/mL,0.12 µg/mL
